Results: US6380181B1, “Synthetic catechol derivatives, method for production and use thereof” (priority 1996, dated 2002)
Read-outs that look alike come from different tables or passages of the source.

Tests used:
Assay type in all cases: cell-based
[1] = test system: Salmonella typhimurium TA 2700; further: test concentration or dose not given here
Description: (§1) In the indicator mutants, the synthesis of the respective siderophores, e.g. pyoverdin, pyochelin, enterobactin, aerobactin or yersiniabactin, or the biosynthesis of aromatic compounds, is blocked, or there is a lack of receptors for enterobactin, pyochelin or pyoverdin and for other important components for the bacterial transport of iron (e.g. the membrane proteins Cir, Fiu, FepA and TonB). Under conditions where there is a lack of iron, these mutants therefore cannot grow or can only grow to a very slight extent. In particular, the following indicator mutants were used: Pseudomonas aeruginosa PAO 6609, K 407, 690; E. coli AB 2847, Salmonella typhimurium enb-7, TA 270; Klebsiella pneumoniae KN 4401; Yersinia enterocolitica WAH; Proteus mirabilis 12 (wild); Proteus vulgaris 718 (wild) and Morganella morganii SBK3 (wild). […] The controls used were ferrioxamine E for the Pseudomonas strains, ferrioxamine G and enterobactin for the Salmonella strains, ferrichrome for the E. coli, Klebsiella and Y. enterocol. strains, and 3,4-dihydroxybenzylidene-2,4,6-trimethylaniline for Morganella morganii (see the above literature reference by R. Reissbrodt et al.).
(§2) The annotations + and (+) relate to non-specific promotion of growth.

[2] = test system: Salmonella typhimurium enb-7; further: test concentration or dose not given here
Description: as §1, §2

E. coli AB 2847 = test system: E. coli AB 2847; further: test concentration or dose not given here
Description: as §1, §2

[3] = test system: Morganella morganii SBK3 (wild)
Description: as §1, §2

[4] = test system: Pseudomonas aeruginosa PAO 6609
Description: as §1, §2

[5] = test system: Pseudomonas aeruginosa K 407; conditions: Pseudomonas aeruginosa K407
Description: as §1, §2

[6] = test system: Klebsiella pneumoniae KN 4401; conditions: Klebsiella KN 4401
Description: as §1, §2

[7] = test system: Proteus mirabilis 12 (wild); conditions: Proteus mir. 12
Description: as §1, §2

[8] = test system: Pseudomonas aeruginosa 690; further: test concentration or dose not given here
Description: as §1, §2

[9] = test system: Proteus vulgaris 718 (wild); conditions: Proteus vul. 718
Description: as §1, §2

SMILES | Growth areas of siderophore indicator strains (diameter) [1] [mm] | Growth areas of siderophore indicator strains (diameter) [2] [mm] | Growth areas of siderophore indicator strains (diameter) (E. coli AB 2847) [mm] | Growth areas of siderophore indicator strains (diameter) ([3]; M. morg. SBK 3) [mm] | Growth areas of siderophore indicator strains (diameter) [4] [mm] | Growth areas of siderophore indicator strains (diameter) [5] [mm] | Growth areas of siderophore indicator strains (diameter) [6] [mm] | Growth areas of siderophore indicator strains (diameter) [7] [mm] | Growth areas of siderophore indicator strains (diameter) [8] [mm] | Growth areas of siderophore indicator strains (diameter) [9] [mm] | Growth areas of siderophore indicator strains (diameter) [3] [mm]
COC(=O)Oc1ccc(C=Nc2cccc(C(=O)O)c2)cc1OC(=O)OC [Substance 1, 3-[3,4-di(Methoxycarbonyloxy)-benzylideneamino]-benzoic Acid] | 0 | 35 | 0 | 35 | 20 | 16 | 0 | 26 | 23 | 35 | 
COC(=O)Oc1ccc(C=Nc2cc(C(=O)O)ccc2O)cc1OC(=O)OC [Substance 2, 3-[3 ,4-di(Methoxycarbonyloxy)-benzylideneamino]4-hydroxybenzoic Acid] | 0 | 30 | 0 | 20 | 17 | 18 | 35 | 16 | 17 | 25 | 
COC(=O)Oc1ccc(C=Nc2cc(N=Cc3ccc(OC(=O)OC)c(OC(=O)OC)c3)cc(C(=O)O)c2)cc1OC(=O)OC [Substance 4, 3,5-Bis-[3,4-di(methoxycarbonyloxy)-benzylideneamino]-benzoic Acid] | 0 | 34 | 18 | 27 | 17 | 18 | 33 | 23 | 18 | 24 | 
CC(=O)Oc1ccc(C=Nc2ccc(C(=O)O)cc2)cc1OC(C)=O [Substance 6, 4-(3,4-Diacetoxybenzylideneamino)-benzoic Acid] | 0 | 34 | 17 | 25 | 14 | 17 | 25 | 23 | 19 | 25 | 
CC(=O)Oc1ccc(N=Cc2cc(C(=O)O)cc(O)c2O)cc1OC(C)=O [Substance 7, 3-[(3,4-Diacetoxyphenylimino)-methyl]-4,5-dihydroxybenzoic Acid] | 0 | 0 | 0 | 22 | 0 | 0 | 23 | 20 | 0 | 22 | 
O=C(O)C(=NNC(=O)c1ccc(O)c(O)c1)c1ccccc1 [Substance 9, [(3,4-Dihydroxybenzoyl)-hydrazono]-phenylacetic Acid] | 0 | 0 | 0 |  |  |  | 27 | 9 | 10 |  | 
CC(=O)Oc1cccc(C(=O)Nc2ccccc2C(=O)O)c1OC(C)=O [Substance 16, 2-(2,3-Diacetoxy-benzoylamino)-benzoic Acid] | 10 | 25 | 24 |  | 20 | 20 |  |  | 20 |  | 
CC(=O)Oc1cccc(C(=O)Nc2ccc(C(=O)O)cc2)c1OC(C)=O [Substance 17, 4-(2,3-Diacetoxy-benzoylamino)benzoic Acid] |  | 0 | 26 | 12 | 0 |  |  |  |  |  | 
O=C(NCCC[C@H](NC(=O)c1cccc(O)c1O)C(=O)O)c1cccc(O)c1O [Substance 18, L-2,5-bis-(2,3-Dihydroxybenzoylamino)-pentanoic Acid] | 50 | 48 | 30 |  | 20 | 17 |  |  | 18 |  | 
C[C@H](NC(=O)c1cccc(O)c1O)C(=O)O [Substance 19, L-2-(2,3-Dihydroxybenzoylamino)-propionic Acid] | 17 | 29 | 11 |  |  | 10 |  |  | 0 |  | 
CC(=O)Oc1cccc(C(=O)N[C@@H](C)C(=O)O)c1OC(C)=O [Substance 20, L-2-(2,3-Diacetoxybenzoylamino)-propionic Acid] | 12 | 31 | 18 |  |  | 10 |  |  | 0 |  | 
O=C(NCC[C@H](NC(=O)c1cccc(O)c1O)C(=O)O)c1cccc(O)c1O [Substance 21, L-2,4-Bis-(2,3-dihydroxybenzoylamino)-butyric Acid] | 40 | 36 | 33 |  | 14 | 15 |  |  | 15 |  | 
O=C(NCCCCC(NC(=O)c1cccc(O)c1O)C(=O)NC[C@H](NC(=O)c1cccc(O)c1O)C(=O)O)c1cccc(O)c1O (stereo partly shown) [Substance 22] | 50 | 50 | 0 |  | 48 | 40 |  |  | 50 |  | 
CC(=O)Oc1cccc(C(=O)N[C@@H](CO)C(=O)O)c1OC(C)=O [Substance 23, L-2-[2,3-Diacetoxybenzoylamino)-3-hydroxypropionic Acid] | 20 | 27 | 22 |  |  |  |  |  | 14 |  | 
O=C(NCCC[C@@H](NC(=O)c1cccc(O)c1O)C(=O)O)c1cccc(O)c1O [Substance 24, D-2,5-Bis-(2,3-dihydroxybenzoylamino)-pentanoic Acid] | 40 | 50 | 40 |  | 20 | 20 |  |  | 20 |  | 
CC(=O)Oc1cccc(C(=O)NCCCC[C@H](NC(=O)c2cccc(OC(C)=O)c2OC(C)=O)C(=O)O)c1OC(C)=O [Substance 25, 1L-2,6-Bis-(2,3-diacetoxybenzoylamino)-hexanoic Acid] |  | 28 | 30 |  | 18 |  |  |  |  |  | 38
CC(=O)Oc1cccc(C(=O)N2COC[C@H]2C(=O)O)c1OC(C)=O [Substance 26, (S)-3-(2,3-diacetoxybenzoyl)-oxazolidine-4-carboxylic Acid] |  | 32 | 14 | 10 | 0 |  |  |  |  |  | 
